# According to patent US20070048329A1, “Epstein barr virus peptide epitopes, polyepitopes and delivery system therefor” (priority 2002, published 2007):
# Legend:
# Type in all cases: cell-based, human
# [1] = tested on: T cells in PBMC of EBV seropositive donors; experiment: IFN-γ ELISPOT assay, ex vivo stimulation of PBMC with LMP1 peptides
# Protocol: The ELISPOT assay was used to assess whether stimulation of PBMC from a large panel of seropositive donors with LMP1 peptides could induce IFN-γ expression in T cells (Bharadwaj 2001). Briefly, ninety six-well mixed cellulose ester membrane plates (Millipore, Bedford, USA) were precoated with 100 μL/well of […] of anti-IFN-γ mAb, 1-D1K (Mabtech, Stockhohn, Sweden) overnight at 4° C. The plate was washed six times with phosphate-buffered saline (PBS), and unreactive sites blocked using 5% foetal bovine serum. PBMCs from healthy EBV carriers of known HLA types were separated from whole blood by Ficoll-Hypaque (Sigma) density gradient centrifugation. PBMCs were added in triplicate wells at 2.5×10^5 cells in a volume of 100 μL/well, and then peptides were added onto the PBMCs at a final 5 μg/mL concentration. PBMCs were also tested at different concentrations in triplicate wells at 2.5×10^5, 1.5×10^5 and 1×10^5 cells/well. PBMCs with various peptide concentrations, 10 μg/mL, 5 μg/mL and 1 μg/mL, were assayed. For negative controls, PBMCs were incubated in growth medium alone without adding peptides. The plate was incubated at 37° C. with 5% CO2 overnight (about 16-20 hr), then washed thrice with PBST (0.05% of Tween-20 in PBS) and three times with PBS before 100 μL/well of 1 μg/mL anti-IFN-γ mAb, 7-B6-1 (Mabtech, Stockholn, Sweden) was added and incubated at room temperature for 3-4 hr. After incubation, the plate was washed again thrice each with PBST and PBS, and 100 μL/well of 1 μg/mL streptavidin-alkaline phosphatase conjugate (Sigma) was added. The plate was incubated at room temperature for 2 hr. Wells were washed again three times each with PBST and PBS, and individual IFN-γ-producing cells were detected as dark spots after about 30-min to an hour-colour reaction with 5-bromo-4-chloro-3-indolylphosphate and nitroblue tetrazolium using an alkaline phosphatase-conjugated substrate (BCIP/NBT; Sigma). Spots were counted automatically using an image analysis software (ImagePro) (Bharadwaj 2001), and were expressed as spot-forming cells (SFC) per 10^6 PBMCs. The number of IFN-γ-secreting T cells was calculated by subtracting the negative control value from the SFC count.
# To comprehensively profile the memory T cell responses against the LMP1 in seropositive virus carriers we used the ELISPOT assay, which allowed rapid ex vivo profiling of LMP1-specific immune response without prolonged in vitro culture. PBMC isolated from a panel of seropositive healthy virus carriers (Table 2) were stimulated with the complete set of overlapping LMP1 peptides and the cells that produced IFN-γ were detected. […] One of the interesting features of these responses was that the majority of the T cell reactivity was directed towards the epitopes within the transmembrane and CTAR1 domains of LMP1, while no reactivity was observed towards the CTAR2 and N-terminus (FIG. 1B). In particular, almost 80% of the CTAR1 domain was targeted for T cell recognition. To identify the T cell subsets responding to these peptides, PBMCs from the seven donors who recognized 17-mer peptides were fractionated into CD4-depleted and CD8-depleted populations and then tested again in ELISPOT assays. […] The CD4-dependent reactivity of the peptide […] was consistent with the previous observations by Leen and colleagues who mapped an HLA DQ2-restricted epitope within this sequence.
# In order to determine the frequency of recognition of the HLA class I-restricted LMP1 CTL epitopes, PBMC from a panel of healthy virus carriers of diverse ethnic origin were screened by ELISPOT assays. Four different HLA class I-restricted and one HLA class II-restricted T cell epitopes were included in this analysis. Strong responses were observed against the HLA-A2-restricted […], […] and […] epitopes in 35-45% of the donors tested. […]
# [2] = tested on: peptide-sensitised PHA blasts and LCLs; experiment: 51Cr-release cytotoxicity assay with peptide-specific CTL lines and clones; conditions: for generation of CTL lines with minimised epitope: donors; for sensitizing autologous PHA blast to lysis by YLLEMLWRL-specific CTL clone: serial dilutions of peptide, compared with wild-type YLLEMLWRL, CTL clone SB7
# Protocol: Polyclonal CTL lines and LMP1-specific CTL clones were established according to previously published methods (Moss 1988; Khanna 1998). Briefly, 2×10^6 PBMCs were stimulated with 1×10^6 autologous lymphocytes (responder to stimulator ratio of 2:1) pulsed with 10 μM peptide for 1 hr in 2 ml in a 24-well plate. After 3 days, culture medium with IL-2 (10 U/ml) was added and the cells were further expanded. These lymphocytes were restimulated on day 7 with γ-irradiated (8000 rad) autologous LCLs. After 10 days in culture medium, the cells were used as polyclonal effectors in a standard ^51Cr-release assay against peptide-sensitised autologous PHA blasts.
# To generate peripheral blood CTL clones specific for the LMP1 derived peptides, PBMCs of healthy donors were reactivated (2×10^6) PBMCs with peptide-sensitised (10 ug of peptide/ml) autologous lymphocytes (1×10^6) in 2 ml wells of a 24-well plate in culture medium. After 3 days, the cells were seeded onto 0.35% agarose and maintained in T cell growth medium containing rIL2 (50 IU/ml). After another 3 days, growing clones were transferred to 96-well round-bottom tissue culture plates (Life Technologies) and cultured in T cell growth medium containing rIL2 (50-100 IU/ml).
# Target cells were pre-sensitized with synthetic peptide epitopes and then incubated with ^51Cr for 90 min. Following incubation, these cells were washed in growth medium and used as targets in a standard 5 h ^51Cr-release assay (Moss, 1988)
# To further characterize the minimal T cell epitopes defined by ELISPOT assays we generated polyclonal and clonal CTL lines specific for these epitopes. PBMCs from the healthy seropositive donors were stimulated with synthetic peptide epitopes and the CTL clones or polyclonal lines were established and tested in standard ^51Cr-release assays. The […] peptide-specific CTL clones were generated using initial stimulation with peptide-sensitized autologous PBMC followed by continuous restimulation with irradiated autologous LCL. These CTL clones were screened for […]-specific CTL activity by ^51Cr release assays against peptide-sensitised autologous and allogeneic PHA blast and LCLs. […] Titration of this minimal epitope on autologous PHA blasts further confirmed the fine specificity of this CTL clone (FIG. 5B).
# [3] = tested on: CD4+ and CD8+ T cell populations of PBMC; experiment: IFN-γ ELISPOT on CD4- or CD8-depleted PBMC; conditions: peptide 10 μg/ml
# Protocol: FIG. 2: Ex vivo detection of IFN-γ secretion by CD4^+ and CD8^+ T cell populations following stimulation with LMP1 peptides. CD4^+ cells or CD8^+ cells were depleted from fresh PBMCs using anti-human CD4 or CD8 immunomagnetic beads as described in the Material and Methods section. These cells were resuspended in growth medium and stimulated with […] (SEQ ID NO: 36; panel A) and […] (SEQ ID NO: 39; panel B) peptides (10 μg/ml) and then tested for IFN-γ secretion using ELISPOT assays.
# CD4^+ cells or CD8^+ cells were depleted from fresh PBMCs using anti-human CD4 or CD8 immunomagnetic beads (Dynabeads M450-CD4 and M450-CD8), respectively (Dynal, Oslo, Norway) according to the manufacturer's instructions. Efficient depletion was confirmed by staining the depleted PBMCs using dual staining with FITC-conjugated anti-CD8 and PE-conjugated anti-CD4 antibody and flow cytometry on a Coulter EPICS XL cytometer. […]
# To comprehensively profile the memory T cell responses against the LMP1 in seropositive virus carriers we used the ELISPOT assay, which allowed rapid ex vivo profiling of LMP1-specific immune response without prolonged in vitro culture. PBMC isolated from a panel of seropositive healthy virus carriers (Table 2) were stimulated with the complete set of overlapping LMP1 peptides and the cells that produced IFN-γ were detected. […]
# [4] = subject nineteen (NPC), donor theta
sequence,measurement,setting,value
ALLVLYSFA,CTL response (SFC/10^6 PBMC),[1]; subject beta,0 SFC/10^6 PBMC
same,CTL response (SFC/10^6 PBMC),[1]; subject eighteen,1184 SFC/10^6 PBMC
same,CTL response (SFC/10^6 PBMC),[1]; subject eleven,128 SFC/10^6 PBMC
same,CTL response (SFC/10^6 PBMC),[1]; subject epsilon,0 SFC/10^6 PBMC
same,CTL response (SFC/10^6 PBMC),[1]; subject fifteen,80 SFC/10^6 PBMC
same,CTL response (SFC/10^6 PBMC),[1]; subject four,0 SFC/10^6 PBMC
same,CTL response (SFC/10^6 PBMC),[1]; subject gamma,0 SFC/10^6 PBMC
same,CTL response (SFC/10^6 PBMC),[1]; [4],0 SFC/10^6 PBMC
same,CTL response (SFC/10^6 PBMC),[1]; subject one,96 SFC/10^6 PBMC
same,CTL response (SFC/10^6 PBMC),[1]; subject six,480 SFC/10^6 PBMC
same,CTL response (SFC/10^6 PBMC),[1]; subject thirteen,0 SFC/10^6 PBMC
same,CTL response (SFC/10^6 PBMC),[1]; subject three,192 SFC/10^6 PBMC
same,CTL response (SFC/10^6 PBMC),[1]; subject twenty,88 SFC/10^6 PBMC
same,CTL response (SFC/10^6 PBMC),[1]; subject twenty-one,592 SFC/10^6 PBMC
same,CTL response (SFC/10^6 PBMC),[1]; subject twenty-two,10 SFC/10^6 PBMC
same,CTL response (SFC/10^6 PBMC),[1]; subject zeta,0 SFC/10^6 PBMC
DSNSNEGRH,generation of CTL lines with minimised epitope,[2],did not generate CTL lines
DWTGGALLVLYSFALML [LMP1 17-mer peptide],T cell subset responding to the peptide,[3],only CD8^+ T-cell dependent reactivity
ESDSNSNEG [reference compound],generation of CTL lines with minimised epitope,[2],did not generate CTL lines
IALYLQQNW,HLA B58-positive donors recognizing the epitope,[1]; responders/tested,3/5
same,CTL response (SFC/10^6 PBMC),[1]; subject delta,0 SFC/10^6 PBMC
same,CTL response (SFC/10^6 PBMC),[1]; subject eight,1952 SFC/10^6 PBMC
same,CTL response (SFC/10^6 PBMC),[1]; subject eleven,504 SFC/10^6 PBMC
same,CTL response (SFC/10^6 PBMC),[1]; subject eta (NPC),0 SFC/10^6 PBMC
same,CTL response (SFC/10^6 PBMC),[1]; subject five,100 SFC/10^6 PBMC
same,CTL response (SFC/10^6 PBMC),[1]; subject fourteen,955 SFC/10^6 PBMC
same,CTL response (SFC/10^6 PBMC),[1]; subject gamma,0 SFC/10^6 PBMC
same,CTL response (SFC/10^6 PBMC),[1]; subject nine,240 SFC/10^6 PBMC
same,CTL response (SFC/10^6 PBMC),[1]; [4],0 SFC/10^6 PBMC
same,CTL response (SFC/10^6 PBMC),[1]; subject seventeen,897 SFC/10^6 PBMC
same,CTL response (SFC/10^6 PBMC),[1]; subject six,455 SFC/10^6 PBMC
same,CTL response (SFC/10^6 PBMC),[1]; subject ten,80 SFC/10^6 PBMC
same,CTL response (SFC/10^6 PBMC),[1]; subject two,48 SFC/10^6 PBMC
TDDSGHESDSNSNEGRH,T cell subset responding to the peptide,[3],predominantly mediated by CD4+ cells
same,recognition of peptide coated autologous PHA blasts by polyclonal CTL lines,"[2]; CTL lines from two donors, data not shown",recognition
same,healthy virus carriers tested recognizing the epitope,[1],all three
same,healthy donors showing a CD8+ T-cell response in Elispot assays,[1]; responders/healthy donors assessed,3/21
same,magnitude of responses,[1]; responding healthy donors,131-190 SFC/10^6 PBMC
same,CTL response (SFC/10^6 PBMC),[1]; subject seventeen,190 SFC/10^6 PBMC
same,CTL response (SFC/10^6 PBMC),[1]; subject ten,131 SFC/10^6 PBMC
same,CTL response (SFC/10^6 PBMC),[1]; subject twenty,141 SFC/10^6 PBMC
YFLEILWGL,sensitizing autologous PHA blast to lysis by YLLEMLWRL-specific CTL clone,[2],poorly recognized
YLLEMLWRL [reference compound],CTL response (SFC/10^6 PBMC),[1]; subject beta,0 SFC/10^6 PBMC
same,CTL response (SFC/10^6 PBMC),[1]; subject eleven,136 SFC/10^6 PBMC
same,CTL response (SFC/10^6 PBMC),[1]; subject epsilon,0 SFC/10^6 PBMC
same,CTL response (SFC/10^6 PBMC),[1]; subject fifteen,300 SFC/10^6 PBMC
same,CTL response (SFC/10^6 PBMC),[1]; subject four,0 SFC/10^6 PBMC
same,CTL response (SFC/10^6 PBMC),[1]; subject gamma,0 SFC/10^6 PBMC
same,CTL response (SFC/10^6 PBMC),[1]; [4],0 SFC/10^6 PBMC
same,CTL response (SFC/10^6 PBMC),[1]; subject seven,100 SFC/10^6 PBMC
same,CTL response (SFC/10^6 PBMC),[1]; subject sixteen,20 SFC/10^6 PBMC
same,CTL response (SFC/10^6 PBMC),[1]; subject thirteen,0 SFC/10^6 PBMC
same,CTL response (SFC/10^6 PBMC),[1]; subject three,42 SFC/10^6 PBMC
same,CTL response (SFC/10^6 PBMC),[1]; subject twelve,0 SFC/10^6 PBMC
same,CTL response (SFC/10^6 PBMC),[1]; subject twenty,160 SFC/10^6 PBMC
same,CTL response (SFC/10^6 PBMC),[1]; subject twenty-one,66 SFC/10^6 PBMC
same,CTL response (SFC/10^6 PBMC),[1]; subject zeta,0 SFC/10^6 PBMC
YLMEILWRL,sensitizing autologous PHA blast to lysis by YLLEMLWRL-specific CTL clone,[2],poorly recognized
YLQQNWWTL [reference compound],CTL response (SFC/10^6 PBMC),[1]; subject beta,0 SFC/10^6 PBMC
same,CTL response (SFC/10^6 PBMC),[1]; subject eleven,196 SFC/10^6 PBMC
same,CTL response (SFC/10^6 PBMC),[1]; subject epsilon,0 SFC/10^6 PBMC
same,CTL response (SFC/10^6 PBMC),[1]; subject fifteen,100 SFC/10^6 PBMC
same,CTL response (SFC/10^6 PBMC),[1]; subject four,0 SFC/10^6 PBMC
same,CTL response (SFC/10^6 PBMC),[1]; subject gamma,0 SFC/10^6 PBMC
same,CTL response (SFC/10^6 PBMC),[1]; [4],0 SFC/10^6 PBMC
same,CTL response (SFC/10^6 PBMC),[1]; subject seven,110 SFC/10^6 PBMC
same,CTL response (SFC/10^6 PBMC),[1]; subject sixteen,26 SFC/10^6 PBMC
same,CTL response (SFC/10^6 PBMC),[1]; subject thirteen,0 SFC/10^6 PBMC
same,CTL response (SFC/10^6 PBMC),[1]; subject three,28 SFC/10^6 PBMC
same,CTL response (SFC/10^6 PBMC),[1]; subject twelve,44 SFC/10^6 PBMC
same,CTL response (SFC/10^6 PBMC),[1]; subject twenty,244 SFC/10^6 PBMC
same,CTL response (SFC/10^6 PBMC),[1]; subject twenty-one,38 SFC/10^6 PBMC
same,CTL response (SFC/10^6 PBMC),[1]; subject zeta,0 SFC/10^6 PBMC
